Test results as given in patent US9670212B2, “Inhibitors of PI3K-delta and methods of their use and manufacture” (Exelixis, Inc., priority 2010, dated 2017).

molecular target: PI3K delta (Homo sapiens (Human), UniProt O00329); assay: Luciferase-coupled chemiluminescence kinase assay (KinaseGlo, ATP consumption); format: biochemical
Summary of the method: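 Kinase, compound and ATP (at or below KM) reacted 2 h at ambient temperature; remaining ATP detected by KinaseGlo luciferase chemiluminescence as percent ATP consumed. 10-point dose-response, curves fitted to give IC50.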

Chain of PI3K delta (O00329 whole entry): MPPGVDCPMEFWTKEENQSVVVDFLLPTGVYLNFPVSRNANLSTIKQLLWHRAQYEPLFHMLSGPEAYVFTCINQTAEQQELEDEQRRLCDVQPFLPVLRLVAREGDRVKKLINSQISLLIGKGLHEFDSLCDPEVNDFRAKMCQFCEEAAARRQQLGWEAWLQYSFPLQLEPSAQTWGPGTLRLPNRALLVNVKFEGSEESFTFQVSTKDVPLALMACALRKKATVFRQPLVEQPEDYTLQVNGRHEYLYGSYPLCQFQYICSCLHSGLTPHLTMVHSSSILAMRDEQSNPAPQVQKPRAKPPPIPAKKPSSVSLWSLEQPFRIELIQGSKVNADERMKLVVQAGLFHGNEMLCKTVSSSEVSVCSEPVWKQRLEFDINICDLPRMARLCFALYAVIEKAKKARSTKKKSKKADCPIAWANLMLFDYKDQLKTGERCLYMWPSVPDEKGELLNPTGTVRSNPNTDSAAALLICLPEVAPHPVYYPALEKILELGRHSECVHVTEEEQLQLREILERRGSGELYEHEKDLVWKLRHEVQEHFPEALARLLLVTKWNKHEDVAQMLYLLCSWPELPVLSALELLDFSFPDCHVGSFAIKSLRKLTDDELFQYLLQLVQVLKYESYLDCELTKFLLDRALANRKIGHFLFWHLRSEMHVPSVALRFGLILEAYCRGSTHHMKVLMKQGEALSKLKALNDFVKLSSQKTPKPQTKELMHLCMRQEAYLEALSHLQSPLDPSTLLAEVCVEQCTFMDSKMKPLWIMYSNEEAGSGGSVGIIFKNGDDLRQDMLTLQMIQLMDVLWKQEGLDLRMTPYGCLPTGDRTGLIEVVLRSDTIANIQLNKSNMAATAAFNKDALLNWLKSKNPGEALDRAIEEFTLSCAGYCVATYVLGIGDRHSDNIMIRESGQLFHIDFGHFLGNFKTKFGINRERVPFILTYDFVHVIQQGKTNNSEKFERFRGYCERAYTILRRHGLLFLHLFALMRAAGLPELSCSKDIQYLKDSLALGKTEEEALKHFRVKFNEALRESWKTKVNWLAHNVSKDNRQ
Chain of PI3K delta (P27986 whole entry partner): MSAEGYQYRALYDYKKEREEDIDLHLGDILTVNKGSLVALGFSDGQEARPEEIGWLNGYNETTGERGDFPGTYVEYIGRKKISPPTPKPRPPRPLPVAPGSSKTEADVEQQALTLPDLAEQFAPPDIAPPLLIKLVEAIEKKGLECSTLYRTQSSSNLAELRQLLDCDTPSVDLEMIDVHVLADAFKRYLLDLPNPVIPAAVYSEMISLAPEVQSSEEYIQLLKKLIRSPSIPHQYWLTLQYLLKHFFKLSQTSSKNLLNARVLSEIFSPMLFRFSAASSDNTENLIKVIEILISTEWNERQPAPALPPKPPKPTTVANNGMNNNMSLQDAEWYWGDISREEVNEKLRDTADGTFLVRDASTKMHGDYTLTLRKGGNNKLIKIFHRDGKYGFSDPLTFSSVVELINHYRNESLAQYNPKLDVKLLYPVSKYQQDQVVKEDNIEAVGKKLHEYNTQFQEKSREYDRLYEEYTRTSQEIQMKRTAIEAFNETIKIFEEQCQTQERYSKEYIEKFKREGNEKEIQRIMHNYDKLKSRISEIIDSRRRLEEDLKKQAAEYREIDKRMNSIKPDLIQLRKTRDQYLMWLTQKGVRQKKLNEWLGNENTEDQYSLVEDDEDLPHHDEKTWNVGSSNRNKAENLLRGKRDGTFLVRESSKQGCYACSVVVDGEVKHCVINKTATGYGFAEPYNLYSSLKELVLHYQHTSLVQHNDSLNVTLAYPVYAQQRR

IC50 [nM]	SMILES
500 to 1500	Cc1cccc2cc(CNC(=O)c3nccnc3N)c(N3CCCN(Cc4cccn4C)CC3)nc12 [Compound 57, 3-amino-N-[(8-methyl-2-{4-[(1-methyl-1H-pyrrol-2-yl)methyl]-1,4-diazepan-1-yl}quinolin-3-yl)methyl]pyrazine-2-carboxamide]
500 to 1500	Cc1cccc2cc(CNC(=O)c3nccnc3N)c(NCc3cccnc3)nc12 [Compound 95, 3-amino-N-({8-methyl-2-[(pyridin-3-ylmethyl)amino]quinolin-3-yl}methyl)pyrazine-2-carboxamide]
< 50	CC(=O)N1CCN(c2nc3c(C)cccc3cc2CNc2ncnc3[nH]cnc23)CC1 [Compound 143, N-{[2-(4-acetylpiperazin-1-yl)-8-methylquinolin-3-yl]methyl}-9H-purin-6-amine]
500 to 1500	Cc1cccc2cc(CNC(=O)c3nccnc3N)c(N(C)CCN(C)C(=O)c3cnccn3)nc12 [Compound 78, 3-amino-N-{[8-methyl-2-(methyl{2-[methyl(pyrazin-2-ylcarbonyl)amino]ethyl}amino)quinolin-3-yl]methyl}pyrazine-2-carboxamide]
500 to 1500	Cc1ccccc1-c1cc2ccccc2nc1CNc1cncnc1N [Compound 132, N-5-{[3-(2-methylphenyl)quinolin-2-yl]methyl}pyrimidin-4,5-diamine]
500 to 1500	Cc1cccc2cc(CNC(=O)c3nccnc3N)c(N(C)CCc3ccccn3)nc12 [Compound 88, 3-amino-N-({8-methyl-2-[methyl(2-pyridin-2-ylethyl)amino]quinolin-3-yl}methyl)pyrazine-2-carboxamide]
< 50	Cc1cccc2cc(CNC(=O)c3nccnc3N)c(N(C)CCCN(C)C(=O)CN(C)C)nc12 [Compound 136, 3-amino-N-({2-[{3-[(N,N-dimethylglycyl)(methyl)amino]propyl}(methyl)amino]-8-methylquinolin-3-yl}methyl)pyrazine-2-carboxamide]
